# Results reported in ChEMBL document CHEMBL1201862, “PubChem BioAssay data set” (2004).
# Active and inactive are the calls of the source.
# What was measured:
# [1] = biological target: Potassium voltage-gated channel subfamily KQT member 2 (Rattus norvegicus, UniProt O88943); assay: rat KCNQ2 current potentiators – automated patch clamp, KCNQ2-CHO cells, SAR follow-up (AID 493113); assay type: functional
# Cytochrome P450 1A2 = biological target: T1, Cytochrome P450 1A2 (Homo sapiens, UniProt P05177);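 note: PubChem cytochrome P450 panel assay, CYP1A2 panel member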
# T1 sequence (P05177 whole entry): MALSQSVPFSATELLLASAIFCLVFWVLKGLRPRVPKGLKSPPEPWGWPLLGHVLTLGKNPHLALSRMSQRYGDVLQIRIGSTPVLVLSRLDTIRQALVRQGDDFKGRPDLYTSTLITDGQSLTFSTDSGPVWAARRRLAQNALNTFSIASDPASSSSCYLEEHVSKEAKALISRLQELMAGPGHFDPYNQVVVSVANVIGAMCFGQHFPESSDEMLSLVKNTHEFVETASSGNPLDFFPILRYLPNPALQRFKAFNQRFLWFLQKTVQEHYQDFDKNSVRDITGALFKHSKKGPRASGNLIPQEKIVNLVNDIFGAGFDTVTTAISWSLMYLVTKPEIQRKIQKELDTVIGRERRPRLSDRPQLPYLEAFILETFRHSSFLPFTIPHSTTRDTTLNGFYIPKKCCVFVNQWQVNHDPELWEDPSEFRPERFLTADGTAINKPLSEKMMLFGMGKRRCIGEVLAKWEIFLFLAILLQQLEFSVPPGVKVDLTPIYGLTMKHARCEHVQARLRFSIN
# Cytochrome P450 2C19 = Cytochrome P450 2C19 (Homo sapiens, UniProt P33261); assay: Cytochrome panel assay with activity outcomes. Panel member name: p450-cyp2c19 Compounds with AC50 equal or less than 10 uM are considered active; assay type: functional
# Cytochrome P450 2C19, sequence (P33261 whole entry): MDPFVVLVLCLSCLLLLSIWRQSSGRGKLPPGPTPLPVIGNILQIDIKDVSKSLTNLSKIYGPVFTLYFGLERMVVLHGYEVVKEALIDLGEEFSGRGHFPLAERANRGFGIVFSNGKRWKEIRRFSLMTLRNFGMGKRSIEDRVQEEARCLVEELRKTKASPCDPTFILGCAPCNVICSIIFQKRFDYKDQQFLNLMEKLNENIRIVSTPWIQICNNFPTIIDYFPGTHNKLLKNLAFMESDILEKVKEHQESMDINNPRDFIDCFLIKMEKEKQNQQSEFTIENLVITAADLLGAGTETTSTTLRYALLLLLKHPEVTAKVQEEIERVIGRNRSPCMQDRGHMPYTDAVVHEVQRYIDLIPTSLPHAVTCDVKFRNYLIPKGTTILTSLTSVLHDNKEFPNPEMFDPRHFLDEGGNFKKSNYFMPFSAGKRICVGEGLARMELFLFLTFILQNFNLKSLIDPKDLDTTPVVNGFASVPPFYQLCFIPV
# Cytochrome P450 3A4 = Cytochrome P450 3A4 (Homo sapiens, UniProt P08684);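 note: CYP3A4 tested as one member of a cytochrome P450 panel screen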
# Cytochrome P450 3A4, sequence (P08684 whole entry): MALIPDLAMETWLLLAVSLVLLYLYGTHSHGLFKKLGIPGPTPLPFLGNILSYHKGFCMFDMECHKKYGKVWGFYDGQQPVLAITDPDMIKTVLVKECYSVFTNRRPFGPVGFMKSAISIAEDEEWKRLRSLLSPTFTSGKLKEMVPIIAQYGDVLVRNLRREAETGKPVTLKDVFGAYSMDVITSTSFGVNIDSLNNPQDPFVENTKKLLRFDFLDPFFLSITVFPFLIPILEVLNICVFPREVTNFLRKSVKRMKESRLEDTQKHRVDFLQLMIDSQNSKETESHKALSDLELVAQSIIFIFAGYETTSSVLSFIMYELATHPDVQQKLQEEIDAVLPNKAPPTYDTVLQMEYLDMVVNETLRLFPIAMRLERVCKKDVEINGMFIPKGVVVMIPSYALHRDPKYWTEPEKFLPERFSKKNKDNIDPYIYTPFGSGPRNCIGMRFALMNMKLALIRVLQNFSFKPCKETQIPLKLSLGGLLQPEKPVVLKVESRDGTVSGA
# [2] = Luminescence Cell-Based Dose Retest to Confirm Inhibitors of Cancer Stem Cells. [Related pubchem assays (depositor defined):AID2717, AID2721]; assay type: functional; settings: Homo sapiens
# [3] = viability loss of HMLE_sh_eGFP cells – cell-based, luminescence, counter-screen for HMLE_sh_ECad selective toxicity project, dose response (AID 463074); assay type: functional, Homo sapiens;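 note: HMLE human mammary epithelial cells expressing control shRNA against eGFP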
# Potassium voltage-gated channel subfamily KQT member 2, sequence (O88943 whole entry): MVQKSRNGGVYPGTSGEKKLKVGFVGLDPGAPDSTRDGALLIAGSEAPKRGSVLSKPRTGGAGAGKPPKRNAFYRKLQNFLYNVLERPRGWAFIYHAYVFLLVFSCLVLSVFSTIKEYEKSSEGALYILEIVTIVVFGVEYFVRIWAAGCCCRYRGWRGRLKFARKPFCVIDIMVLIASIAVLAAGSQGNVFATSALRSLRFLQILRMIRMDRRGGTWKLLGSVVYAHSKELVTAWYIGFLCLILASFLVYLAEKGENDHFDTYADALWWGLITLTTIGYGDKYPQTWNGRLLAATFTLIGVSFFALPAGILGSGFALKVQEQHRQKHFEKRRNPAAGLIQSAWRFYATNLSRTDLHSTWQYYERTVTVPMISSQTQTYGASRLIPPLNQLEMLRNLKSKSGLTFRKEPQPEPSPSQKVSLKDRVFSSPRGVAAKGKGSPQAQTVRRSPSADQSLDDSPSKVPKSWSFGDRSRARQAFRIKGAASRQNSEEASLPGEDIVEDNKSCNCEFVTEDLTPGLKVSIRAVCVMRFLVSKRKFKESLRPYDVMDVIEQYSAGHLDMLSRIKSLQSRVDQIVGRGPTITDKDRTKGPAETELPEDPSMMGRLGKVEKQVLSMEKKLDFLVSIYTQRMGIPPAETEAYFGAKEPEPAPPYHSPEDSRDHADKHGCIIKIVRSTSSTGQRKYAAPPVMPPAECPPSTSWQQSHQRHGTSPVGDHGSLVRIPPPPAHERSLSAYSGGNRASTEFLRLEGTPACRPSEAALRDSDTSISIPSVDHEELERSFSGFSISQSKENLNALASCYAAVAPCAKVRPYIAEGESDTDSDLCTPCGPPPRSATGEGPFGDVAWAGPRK
smiles,measurement,setting,value
CCc1ccc(NC(=O)C2CC3CCC2C3)cc1 (stereo unspecified),EC50,[1],0.92 µM (active)
O=C(O)CNC(=O)c1ccc([As](=O)(O)O)cc1,AC50,Cytochrome P450 1A2,inactive
same,AC50,Cytochrome P450 2C19,inactive
same,AC50,Cytochrome P450 3A4,inactive
O=C(NCCCn1ccnc1)c1cccc(S(=O)(=O)N2CCCCCC2)c1,AC50,[2],18.9 µM (active)
same,AC50,[3],27.2 µM (active)
